We go through 15 compounds from US4997835A, “Substituted 2-acylpyridine-α-(N)-hetarlyhydrazones and medicaments containing the same” (priority 1987, dated 1991).

pIC50: −log10 of the molar value. In brackets after ≈: the same amount, converted by molar mass. Read-outs that look alike come from different tables or passages of the source. Bounds are passed on as bounds.

The test system of data set [1] is Mycobacterium avium SN 304. In words: Minimum inhibiting concentration, M. avium SN 304. Type of data set: cell-based.
Data set [2] deals with Mycobacterium avium Patient Strain (Birk). Kind of data set: Minimum inhibiting concentration, M. avium Patient Strain (Birk). Type of data set: cell-based. The settings on record: for MIC: Mycobacterium avium, read-out: Minimum inhibiting concentration.
For data set [3], the system named is M. leprae. In words: In vitro propagation of M. leprae, thymidine incorporation. Type of data set: cell-based. Conditions: Mycobacterium leprae, read-out: % Reduction Thymidine incorporation; for inhibition of growth at 10000 µg/mL: 10 mg/ml.
Description: The inhibiting action was determined as a reaction of the thymidine absorption and the ATP content in M. Leprae suspensions, in the manner described by A. M. Dhople, Med. Sci. Res., 15, p.
The subject of data set [4] is M. leprae. Kind of data set: Propagation of M. leprae in mouse paws. The settings on record: two months in feed; DDS 0.0001%, Rifampicin 0.001%, K-130 0.01%, Brodimoprim 0.01%, PH 22-26 0.05%. Type of data set: in vivo. On the procedure:
The therapeutic action was determined as a reduction of the number of acid-resistant bacteria in the mouse paw according to C. C. Shepard, J. Experim. Met., 112, p. 445, 1960.
It is possible to detect the synergistic effect of the combinations, even under in vivo conditions.

A further data set has as its system Mycobacterium lufu. In words: Minimum inhibiting concentration, M. lufu L 209. Type of data set: cell-based. Conditions: for MIC: Mycobacterium lufu.
Data set [5] deals with Mycobacterium tuberculosis H 37 RV. Kind of data set: Minimum inhibiting concentration, M. tuberculosis H37RV. Type of data set: cell-based. Conditions: M. tub. H37RV; for MIC: Mycobacterium tuberculosis. The protocol:
The minimum inhibiting concentration of the commercially available and inventive substances given in Table 2 was determined according to the known standard process ("Methods for sensitivity testing of bacterial infectious germs", DIN 58940, part 5).
The determination was carried out on the following bacterial cultures:
2. Mycobacterium tuberculosis H 37 RV, FIB 2-85 JS
For culturing the bacterial cultures use was made of nutrient substrates according to Gottsacker and Lowenstein Jensen and culture media according to Lockemann or Dubos-Davis (cf. "Detection processes for mycobacteria from test material, III, culture medium formulations for culturing tuberculosis bacteria", 1978, Publisher: Deutsches Zentralkomitee zur Bekampfung der Tuberculose, Poppenhusenstrasse 14c, 2000 Hamburg 60).
In each case 5×10^-3 to 5×10^-5 mg, based on the wet weight, of the mycobacterial strains were incubated in 2 ml of culture fluid (Lockemann +0.5 wt/vol. % bovine serum albumen fraction 5) at 31° C. with a graded concentration of the particular inhibitor (dilution series). The culture tubes were read off after 8 to 15 days, as a function of the bacterial strain.
The MIC is the inhibitor concentration in μMol/l at which no propagation of the sewn cells is observed.

The test system of data set [6] is Mycobacterium smegmatis ATCC 607. In words: Minimum inhibiting concentration, M. smegmatis ATCC 607. Type of data set: cell-based. The settings on record: for MIC: Mycolicibacterium smegmatis.
A further data set concerns lymphatic leukaemia P388. The settings on record: C. Pellerano et al, Il Farmaco 1985; cited from earlier work.
Data set [7] has as its system Mycobacterium marinum SN 1254. Kind of data set: Minimum inhibiting concentration, M. marinum SN1254. Type of data set: cell-based.
Data set [8] relates to human mammary tumour cell line MDA-MB231. In words: Inhibition of cellnumber increase. Type of data set: cell-based. The settings on record: MDA-MB-231, read-out: 50% Inhibition of cellnumber increase, I50. The protocol: (§1) The semimaximum inhibition of cellnumber increase and thymidine incorporation into DNA was determined on the […], human mammary tumour cell line MDA-MB231 (cf. H. D. Soule et al, J. Nat. Cancer Inst., 51, p.1409, 1973) according to the method described by H. Seidenberger, G. Kranzfelder, S. Wappes, H. Schonenberger, W. Beck and M. Girth, Arch. Pharm. 314, 955, 1981 and M. Lippman, M. E. Monaco and G. Bolan, Cancer Res. 37, 1901, 1977.

For data set [9] the test system is unchanged. In words: Inhibition of thymidine incorporation into DNA. Conditions: MDA-MB-231, read-out: 50% Inhibition of thymidine incorporation. Type of data set: cell-based. The protocol: as §1
In data set [10] the test system is Indochina W-2 (parasitic malaria strain). Kind of data set: Growth of malaria strain Indochina W-2. Type of data set: cell-based. Conditions: for pIC50: read-out: I50; for IC90: read-out: I90. The text has this:
(§2) Determination of the semimaximum inhibiting concentration (I50) of typical representatives of the inventive compounds for the growth of parasitic malaria strains:
(§3) The determination took place according to the standard process (cf. WHO determination process).
(§4) The process according to Example 35 was repeated with the difference that the semimaximum inhibiting concentration of combinations of the inventive compound PH 22 with (2), (3) inhibitors of dihydrofolic acid reductase, (4) inhibitors of folate synthase and dihydrofolic acid reductase and (5), (6) inhibitors of DNA-synthesis were determined.

Data set [11] has as its system Sierra Leone D-6 (parasitic malaria strain). Kind of data set: Growth of malaria strain Sierra Leone D-6. Type of data set: cell-based. The settings on record: for pIC50: read-out: I50; for IC90: read-out: I90.
Description: as §2, §3, §4

The conditions of data set [12]: Mouse, cited from earlier work.
Setting [13] is: SN304, M. avium SN 304, read-out: Minimum inhibiting concentration.
Where [14] appears, read: M. marin. SN1254, read-out: Minimum inhibiting concentration.
The mark [15] stands for this setting: ATCC607, M. smegm. ATCC 607, read-out: Minimum inhibiting concentration.

Turning to `CO[C@H]1/C=C/O[C@@]2(C)Oc3c(C)c(O)c4c(O)c(c(/C=N/N5CCN(C)CC5)c(O)c4c3C2=O)NC(=O)/C(C)=C\C=C\[C@H](C)[C@H](O)[C@@H](C)[C@@H](O)[C@@H](C)[C@H](OC(C)=O)[C@@H]1C` [Rifampicin], the results for the MIC in [1] (setting [13]) and in data set [2] (M. avium Patient str.) were 39 µM (≈ 32.1 µg/mL) and 5 µM, respectively. Also, the inhibition of growth at 50000 µg/mL in the data set with M. leprae [3] (50 mg/ml) was determined as 2%. Besides, the inhibition of growth at 100000 µg/mL in the data set with M. leprae [3] (100 mg/ml) was 0%. Further, the “% Inhibition of propagation of M. leprae in mouse paws” value (from here on “% Inhibition”) in the data set on M. leprae [4] is 19%.
With `CC(=NN(c1ccccn1)c1ccc2ccccc2n1)c1ccccn1` [PH 22-4, 2-acetylpyridine-2'-pyridyl-2'-quinolylhydrazone], the Minimum inhibiting concentration in the data set with Mycobacterium lufu was 6,7 μM/1; in data set [5], 4,8 μM/1; in data set [6] (M. smegm. ATCC 607), 15 μM/1; in data set [2] (M. avium Patient str.) it was 58 μM/1. Also, the “in vivo treatment of lymphatic leukaemia P388” value (from here on “in vivo treatment”) with lymphatic leukaemia P388 is given as “ineffective”.
On to `NC[C@H]1O[C@H](O[C@H]2[C@H](O)[C@@H](O[C@H]3O[C@H](CO)[C@@H](O)[C@H](N)[C@H]3O)[C@H](N)C[C@@H]2N)[C@H](O)[C@@H](O)[C@@H]1O` [Kanamycin, reference compound], for which the MIC in data set [1] (SN304, read-out: Minimum inhibiting concentration) was found to be 33 µM (≈ 16 µg/mL); in [2], 17 µM.
For the compound `CC(=NNc1ccccn1)c1ccccn1` [PH 22-2, 2-acetylpyridine-2'-pyridylhydrazone], the MIC with Mycobacterium lufu was determined as 33 µM (≈ 7 µg/mL); in data set [5] it was 48 µM (≈ 10.2 µg/mL); in data set [7] (setting [14]), 28 µM (≈ 5.94 µg/mL); in data set [6] (setting [15]) it was 24 µM (≈ 5.09 µg/mL); in data set [2] (M. avium Patient str.), 132 µM. Besides, the “in vivo treatment” value in the data set on lymphatic leukaemia P388 is “ineffective”.
As to `c1ccc(C(=NNc2ccc3ccccc3n2)c2ccccn2)cc1` [PH 22-15, 2-benzoylpyridine-2'-quinolylhydrazone], the MIC with Mycobacterium lufu is 1.2 µM (≈ 0.389 µg/mL); in data set [5], 0.97 µM (≈ 0.315 µg/mL); in data set [7] (setting [14]), 4.6 µM (≈ 1.49 µg/mL); in data set [6] (setting [15]), 3.1 µM (≈ 1.01 µg/mL); in [2] (M. avium Patient str.), 18.5 µM. Further, the pIC50 in data set [8] was 5.82; in data set [9], 6.24.
For `COc1cc(Cc2cnc(N)nc2N)cc(OC)c1Br` [Brodimoprim, brodimoprim, reference compound], the MIC against Mycobacterium lufu is 80 µM (≈ 27.1 µg/mL); in data set [5], 94 µM (≈ 31.9 µg/mL); in [7] (setting [14]), 18 µM (≈ 6.11 µg/mL); in data set [2] (M. avium Patient str., values marked *) it was > 100 µg/mL. In addition, in the data set on M. leprae [4], the “% Inhibition” value was found to be 3%.
For `COc1cc(Cc2cnc(N)nc2N)cc(OC)c1OCCCNc1ccc(S(=O)(=O)c2ccc(N)cc2)cc1` [K-130, 2,4-diamino-5-{4-[3-(4'-aminophenyl-4-sulphonylphenylamino)-propoxy]-3,5-dimethoxybenzyl}-pyrimidine], the inhibition of growth at 10000 µg/mL with M. leprae [3] worked out at 0%. In addition, the inhibition of growth at 20000 µg/mL in the data set with M. leprae [3] (20 mg/ml) worked out at 65%. Moreover, in the data set on M. leprae [4], the “% Inhibition” value is recorded as 56%.
As to `[H]/N=C(/N)N[C@H]1[C@H](O)[C@@H](O)[C@H](O[C@@H]2O[C@@H](C)[C@](O)(C=O)[C@H]2O[C@@H]2O[C@@H](CO)[C@H](O)[C@@H](O)[C@@H]2NC)[C@@H](N/C(N)=N\[H])[C@@H]1O` [Streptomycin], the MIC in [1] (setting [13]) is 55 µM (≈ 32 µg/mL).
On to `Nc1ccc(S(=O)(=O)c2ccc(N)cc2)cc1` [DDS, 4,4'-diaminodiphenylsulphone], for which the inhibition of growth at 5000 µg/mL in the data set with M. leprae [3] (5 mg/ml) was 0%. The inhibition of growth at 10000 µg/mL in the data set with M. leprae [3] worked out at 5%. Also, the “% Inhibition” value in the data set on M. leprae [4] is 14%.
For `CCC(=NNc1nncc2ccccc12)c1ccccn1` [PH 22-25, ethyl-2-pyridylketone-1'-phthalazinylhydrazine], the MIC turned out to be 2.7 µM (≈ 0.749 µg/mL) in the data set on Mycobacterium lufu, 36 µM (≈ 9.98 µg/mL) in data set [5], 101 µM (≈ 28 µg/mL) in [7] (setting [14]) and 10.8 µM (≈ 3 µg/mL) in [6] (setting [15]). Further, the pIC50 is 6.40 in [10], 6.52 in [11], 6.71 in [8] and 6.98 in data set [9]. The IC90 is 700 nM in data set [10] and 450 nM in data set [11].
Turning to `c1ccc(C(=NNc2ccccn2)c2ccccn2)cc1` [PH 22-9, 2-benzoyl pyridine-2'-pyridylhydrazone], the MIC in the data set on Mycobacterium lufu is 5.5 µM (≈ 1.51 µg/mL); in data set [5] it was 13 µM (≈ 3.57 µg/mL); in data set [7] (setting [14]) it was 18.3 µM (≈ 5.02 µg/mL); in data set [6] (setting [15]), 36.5 µM (≈ 10 µg/mL); in data set [2] (M. avium Patient str.), 73 µM. Further, the pIC50 in [10] is 5.82; in data set [11], 5.74; in [8], 7.01; in data set [9] it was 7.05. Also, the IC90 amounted to 5300 nM in data set [10] and 2200 nM in [11]. The “in vivo treatment” value in the data set on lymphatic leukaemia P388 was “ineffective”.
For `CC(=O)Nc1ccc(C=NNC(N)=S)cc1` [Conteben, 4-acetylaminobenzaldehyde-thiosemicarbazone, reference compound], the MIC in the data set with Mycobacterium lufu came to 339 µM (≈ 80.1 µg/mL); in [5], 4 µM (≈ 0.945 µg/mL); in data set [2] (M. avium Patient str.) it was 35 µM. The LD50 in data set [12] (p.o., Comptes Rendus Soc. Biol. 1310 (1950)) is on record as 950 mg/kg body weight; in data set [12] (subc., J. Pharm. Pharmacol. 2, 764 (1950)), 1000-2000 mg/kg body weight.
For `C(=NNc1ccc2ccccc2n1)c1ccccn1` [PQ 22, pyridine-2-aldehyde-2'-quinolylhydrazone], the MIC came out at 10 µM (≈ 2.48 µg/mL) in the data set on Mycobacterium lufu; 28 µM (≈ 6.95 µg/mL) in data set [5]; 12 µM (≈ 2.98 µg/mL) in data set [7] (setting [14]); 21 µM (≈ 5.21 µg/mL) in [6] (setting [15]); 24 µM (≈ 5.96 µg/mL) in data set [1] (setting [13]). Further, the pIC50 in data set [10] is 5.96; in data set [11], 5.82; in data set [8], 6.49; in [9], 6.80. The IC90 turned out to be 1700 nM in data set [10] and 2000 nM in [11].
Consider `NC(=NNc1ccccn1)c1ccccn1` [PH 22-12, pyridine-2-carboxylic acid 2'-pyridyl-amidrazone], for which the pIC50 is 5.20 in data set [10], 5.82 in data set [11], 6.34 in data set [8] and 6.48 in data set [9]. Also, the values for the IC90 in [10] and in data set [11] were 41000 nM and 4300 nM, respectively.
With `Cc1ccnc(C=NNc2ccccn2)c1` [PH 22-7, 4-methyl-pyridine-2-aldehyde-2'-pyridylhydrazone], the MIC was found to be 57 µM (≈ 12.1 µg/mL) against Mycobacterium lufu; 113 µM (≈ 24 µg/mL) in [5]; 113 µM (≈ 24 µg/mL) in data set [7] (SN1254, read-out: Minimum inhibiting concentration); 113 µM (≈ 24 µg/mL) in data set [6] (ATCC607, read-out: Minimum inhibiting concentration). Moreover, the pIC50 in data set [8] was 6.56; in [9], 6.80.
